Experimental data from patent US11072741B2, “Optically anisotropic layer, method for producing the optically anisotropic layer, a laminate, polarizing plate, display device, liquid crystal compound, method for producing the liquid crystal compound, and carboxylic acid compound” (FUJIFILM Corporation, priority 2014, dated 2021).

Experiments:
[1] = Measurement and evaluation of solubility in MEK and CPN; assay type: physicochemical; parameters: key to Solubility Evaluation: A: solubility improved twofold or greater in plural solvents or a single solvent; B: solubility was the same or improved up to twofold in plural solvents or a single solvent; C: no improvement in solubility in plural solvents or a single solvent; conditions: for Solubility CPN wt %: cyclopentanone; for Solubility CPN wt % / Solubility MEK wt %: room temperature, visual observation, 5 wt % increments; for Solubility MEK wt %: methyl ethyl ketone; for Solubility Evaluation: versus comparative compound with the same Ar and side chain portion of Formula (Ia)
Protocol: Solubility measurements of the synthesized liquid crystal compounds were conducted by the following method. 50 mg of each compound was weighted into a 1.5 mL sample bottle, and solvent was added until the solid component became 40 wt % (75 mg). The solubility was determined to be 40 wt % if clear under visual observation after shaking well manually at room temperature. If undissolved residue was present, solvent was added such that the solid component became 35 wt % (+18 mg). The solubility was determined to be 35 wt % if clear under visual observation after shaking well manually at room temperature. If undissolved residue was present, solvent was added such that the solid component became 30 wt %. Similar operations were performed in increments of 5 wt %, and repeated until the solid component became 5 wt %. If undissolved residue was present, the solubility was determined to be less than 5 wt % (<5 wt %), and measurements were completed. MEK (methyl ethyl ketone) and CPN (cyclopentanone) were utilized as solvents for measuring solubility.
The measured values of solubility were evaluated. The evaluations were conducted by using solubility of a compound of a Comparative Example having Ar (the aromatic ring at the center of General Formula 1) in common with the Examples and a side chain portion represented by Formula (Ia) as a reference, in a manner similar to that in the evaluation of the phase transition temperature. Evaluations of A through C were assigned according to the degree of improvement in solubility from the reference solubility.
(§1) For example, compound (I-1) and (I-2) were compared to Comparative Compound (Ia-1), and Compound (III-3) was compared to Comparative Compound (IIIa-3). The evaluation was carried out based on the following criteria.
A: solubility improved twofold or greater in plural solvents or a single solvent
B: solubility was the same or improved up to twofold in plural solvents or a single solvent
C: no improvement in solubility in plural solvents or a single solvent

[2] = Evaluation of phase transition temperature by polarizing microscope; assay type: physicochemical; conditions: for Phase Transition Temperature Evaluation of Decrease: versus comparative compound with the same Ar and side chain portion of Formula (Ia)
Excerpt: Here, the temperature at which the compound transitions from the smectic phase to the nematic phase may be easily measured by observation of the composition employing polarized light microscopy. For example, in the nematic phase, a schlieren texture specific to the nematic phase is observed, while the texture transitions to a focal conic fan texture in a smectic A phase. Therefore, the phase transition temperature can be measured by observing the textures with a polarizing microscope while increasing or decreasing the temperature.
The phase transition temperatures of the synthesized liquid crystal compounds of the Examples and Comparative Examples were observed using a polarizing microscope to evaluate the degrees of temperature decrease. Specifically, the compounds of the Examples were compared to the compounds of the Comparative Examples, which have different structures for the side chain portions thereof. That is, the phase transition temperature of a compound of a Comparative Example having Ar (the aromatic ring at the center of General Formula 1) in common with the Examples and a side chain portion represented by Formula (Ia) below was used as a reference. Evaluations of A through C were assigned according to the degree of temperature decrease from the reference phase transition temperature.
as §1
A: decrease in melting point or Sm-N (smectic-nematic) transition temperature is 20° C. or greater
B: decrease in melting point or Sm-N (smectic-nematic) transition temperature is 5° C. or greater and less than 20° C.
C: decrease in melting point or Sm-N (smectic-nematic) transition temperature is less than 5° C.
With respect to the phase transition temperature, the numerical value in parentheses represents the numerical value during temperature decrease, and other numerical values represent a numerical value during temperature increase.

[3] = value in parentheses: during temperature decrease

Solubility CPN wt % [1] [wt %]	Solubility MEK wt % [1] [wt %]	melting point [°C]	TNi(° C.) Isotropic Phase Transition Point ([2]; during temperature increase)	TNi(° C.) Isotropic Phase Transition Point [2, 3]	Tsm—N(° C.) Sm—N Transition Point ([2]; during temperature increase) [°C]	Tsm—N(° C.) Sm—N Transition Point [2, 3]	SMILES	Solubility Evaluation [1]	Phase Transition Temperature Evaluation of Decrease [2]
10	<5	170	206 °C	–	–	–	C=CC(=O)OCCCCOC(=O)[C@H]1CC[C@H](C(=O)O[C@H]2CC[C@H](C(=O)Oc3ccc(OC(=O)[C@H]4CC[C@H](OC(=O)[C@H]5CC[C@H](C(=O)OCCCCOC(=O)C=C)CC5)CC4)c4c3SC(=C(C#N)C#N)S4)CC2)CC1 [Ib-1]	C	C (decrease in melting point or Sm-N (smectic-nematic) transition temperature is less than 5° C.)
40	40	–	–	(58) ° C.	–	–	C=CC(=O)OCCOC(=O)CCC(=O)OCCc1ccc(OC(=O)[C@H]2CC[C@H](C(=O)Oc3cc(C(C)(C)C)c(OC(=O)[C@H]4CC[C@H](C(=O)Oc5ccc(CCOC(=O)CCC(=O)OCCOC(=O)C=C)cc5)CC4)c4c3SC(=C(C#N)C#N)S4)CC2)cc1 [IV-6]	A (solubility improved twofold or greater in plural solvents or a single solvent)	A (decrease in melting point or Sm-N (smectic-nematic) transition temperature is 20 °C or greater)
20	10	163	279 °C	–	–	–	C=CC(=O)OCCCCCCOc1ccc(OC(=O)[C@H]2CC[C@H](C(=O)Oc3ccc(OC(=O)[C@H]4CC[C@H](C(=O)Oc5ccc(OCCCCCCOC(=O)C=C)cc5)CC4)c(/C=N/Nc4nc5ccccc5s4)c3)CC2)cc1 [VIa-1]	–	–
35	20	134	190 °C	–	–	–	C=CC(=O)OCCOC(=O)CCC(=O)OCCc1ccc(OC(=O)[C@H]2CC[C@H](C(=O)Oc3ccc(OC(=O)[C@H]4CC[C@H](C(=O)Oc5ccc(CCOC(=O)CCC(=O)OCCOC(=O)C=C)cc5)CC4)c(/C=N/Nc4nc5ccccc5s4)c3)CC2)cc1 [VI-1]	A (solubility improved twofold or greater in plural solvents or a single solvent)	A (decrease in melting point or Sm-N (smectic-nematic) transition temperature is 20 °C or greater)
10	<5	–	–	(167) ° C.	–	–	C=CC(=O)OCCCCCCOc1ccc(OC(=O)[C@H]2CC[C@H](C(=O)Oc3cc(C(C)(C)C)c(OC(=O)[C@H]4CC[C@H](C(=O)Oc5ccc(OCCCCCCOC(=O)C=C)cc5)CC4)c4c3SC(=C(C#N)C#N)S4)CC2)cc1 [IVa-6, reference compound]	–	–
40	20	108	172 °C	–	140	–	C=CC(=O)OCCOC(=O)CCC(=O)OCCc1ccc(OC(=O)[C@H]2CC[C@H](C(=O)Oc3ccc(OC(=O)[C@H]4CC[C@H](C(=O)Oc5ccc(CCOC(=O)CCC(=O)OCCOC(=O)C=C)cc5)CC4)c4c3SC(=C(C#N)C#N)S4)CC2)cc1 [Compound I-1]	A (solubility improved twofold or greater in plural solvents or a single solvent)	A (decrease in melting point or Sm-N (smectic-nematic) transition temperature is 20 °C or greater)
10	<5	131	240 °C	–	–	–	C=CC(=O)OCCCCCCOc1ccc(OC(=O)[C@H]2CC[C@H](C(=O)Oc3ccc(OC(=O)[C@H]4CC[C@H](C(=O)Oc5ccc(OCCCCCCOC(=O)C=C)cc5)CC4)c4c3SC(=C(C#N)C(=O)OC)S4)CC2)cc1 [IIIa-3]	–	–
20	10	105	168 °C	–	130	–	C=C(C)C(=O)OCCOC(=O)CCC(=O)OCCc1ccc(OC(=O)[C@H]2CC[C@H](C(=O)Oc3ccc(OC(=O)[C@H]4CC[C@H](C(=O)Oc5ccc(CCOC(=O)CCC(=O)OCCOC(=O)C(=C)C)cc5)CC4)c4c3SC(=C(C#N)C#N)S4)CC2)cc1 [Compound I-2]	A (solubility improved twofold or greater in plural solvents or a single solvent)	A (decrease in melting point or Sm-N (smectic-nematic) transition temperature is 20 °C or greater)
20	10	110	172 °C	–	146	–	C=CC(=O)OCCOC(=O)COCC(=O)OCCc1ccc(OC(=O)[C@H]2CC[C@H](C(=O)Oc3ccc(OC(=O)[C@H]4CC[C@H](C(=O)Oc5ccc(CCOC(=O)COCC(=O)OCCOC(=O)C=C)cc5)CC4)c4c3SC(=C(C#N)C#N)S4)CC2)cc1 [Compound I-6]	A (solubility improved twofold or greater in plural solvents or a single solvent)	A (decrease in melting point or Sm-N (smectic-nematic) transition temperature is 20 °C or greater)
10	<5	189	>250 ^ ° C.	–	–	–	C=CC(=O)OCCCCCCOc1ccc(OC(=O)[C@H]2CC[C@H](C(=O)Oc3cc(C)c(OC(=O)[C@H]4CC[C@H](C(=O)Oc5ccc(OCCCCCCOC(=O)C=C)cc5)CC4)c4c3SC(=C(C#N)C#N)S4)CC2)cc1 [IVa-1]	–	–
<10	<5	185	>210^ ° C.	–	–	–	C=CC(=O)OCCCCOc1ccc(C(=O)Oc2ccc(C(=O)Oc3ccc(OC(=O)c4ccc(OC(=O)c5ccc(OCCCCOC(=O)C=C)cc5)cc4)c4c3SC(=C(C#N)C#N)S4)cc2)cc1 [Ic-1]	C	C (decrease in melting point or Sm-N (smectic-nematic) transition temperature is less than 5° C.)
25	10	130	195 °C	–	145	–	C=C(C)C(=O)OCCOCCNC(=O)OCCc1ccc(OC(=O)[C@H]2CC[C@H](C(=O)Oc3ccc(OC(=O)[C@H]4CC[C@H](C(=O)Oc5ccc(CCOC(=O)NCCOCCOC(=O)C(=C)C)cc5)CC4)c4c3SC(=C(C#N)C#N)S4)CC2)cc1 [Compound I-7]	A (solubility improved twofold or greater in plural solvents or a single solvent)	B (decrease in melting point or Sm-N (smectic-nematic) transition temperature is 5 °C or greater and less than 20° C.)
40	40	–	–	(113) ° C.	–	(61) ° C.	C=CC(=O)OCCOC(=O)CCC(=O)OCCc1ccc(OC(=O)[C@H]2CC[C@H](C(=O)Oc3cc(CC)c(OC(=O)[C@H]4CC[C@H](C(=O)Oc5ccc(CCOC(=O)CCC(=O)OCCOC(=O)C=C)cc5)CC4)c4c3SC(=C(C#N)C#N)S4)CC2)cc1 [IV-2]	–	–
40	40	–	–	(50) ° C.	–	–	C=CC(=O)OCCOC(=O)CCC(=O)OCCc1ccc(OC(=O)[C@H]2CC[C@H](C(=O)Oc3ccc(OC(=O)[C@H]4CC[C@H](C(=O)Oc5ccc(CCOC(=O)CCC(=O)OCCOC(=O)C=C)cc5)CC4)c4c3SC(=C(C#N)C(=O)OCCC(C)(C)O)S4)CC2)cc1 [III-7]	A (solubility improved twofold or greater in plural solvents or a single solvent)	A (decrease in melting point or Sm-N (smectic-nematic) transition temperature is 20 °C or greater)
